Reference: patent US20220175856A1, “UNRAVELING RECEPTOR-METABOLITE INTERACTIONS IN THE HUMAN MICROBIOME” (The Rockefeller University, priority 2019, published 2022)
Entries after “also recorded” stand apart in the source; their conditions may differ. Where two headings read alike, the source gives them in different places.

Legend:
[1] = target: T1, NMU1R (neuromedin receptor 1) (Homo sapiens, UniProt Q9HB89); assay: β-arrestin recruitment GPCR agonist assay (PathHunter), NMU1R; type: cell-based; conditions: for agonist activity at NMU1R: result in words
T1 sequence (Q9HB89 1-426): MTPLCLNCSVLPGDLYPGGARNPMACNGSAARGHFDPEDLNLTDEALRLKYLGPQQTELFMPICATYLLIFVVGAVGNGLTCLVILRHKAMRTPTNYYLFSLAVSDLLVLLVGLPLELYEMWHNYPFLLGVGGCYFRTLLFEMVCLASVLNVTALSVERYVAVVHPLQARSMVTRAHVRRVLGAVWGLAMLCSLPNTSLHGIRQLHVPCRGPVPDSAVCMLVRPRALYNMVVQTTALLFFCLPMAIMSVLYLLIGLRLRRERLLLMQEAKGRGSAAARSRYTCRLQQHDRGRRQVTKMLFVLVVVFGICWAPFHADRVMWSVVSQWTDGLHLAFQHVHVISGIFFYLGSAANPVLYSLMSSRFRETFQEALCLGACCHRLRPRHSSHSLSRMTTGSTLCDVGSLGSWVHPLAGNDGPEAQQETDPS

[2] = target: T2, urotensin 2 receptor (UTR2) (Homo sapiens, UniProt Q9UKP6); assay: β-arrestin recruitment GPCR agonist assay (PathHunter), UTR2; type: cell-based; conditions: for agonist activity at UTR2: result in words
T2 sequence (Q9UKP6 1-389): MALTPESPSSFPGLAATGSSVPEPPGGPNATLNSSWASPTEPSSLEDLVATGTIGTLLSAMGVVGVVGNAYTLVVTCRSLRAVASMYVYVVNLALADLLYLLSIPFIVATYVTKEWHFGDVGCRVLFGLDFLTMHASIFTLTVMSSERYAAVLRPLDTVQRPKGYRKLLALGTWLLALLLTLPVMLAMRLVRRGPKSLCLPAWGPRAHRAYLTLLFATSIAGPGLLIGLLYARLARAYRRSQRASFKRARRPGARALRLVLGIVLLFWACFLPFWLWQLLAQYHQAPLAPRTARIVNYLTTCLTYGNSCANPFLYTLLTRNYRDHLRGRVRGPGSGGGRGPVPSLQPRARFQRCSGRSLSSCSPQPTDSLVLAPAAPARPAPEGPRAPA

[3] = tested on: serotonin receptors (HTRs); assay: β-arrestin recruitment GPCR agonist assay (PathHunter), serotonin receptors; type: cell-based, human; conditions: result in words
GPR109B = GPR109B (Homo sapiens, UniProt P49019); assay: cell-based
Excerpt: (§1) Individual bacteria from the SIHUMI consortium were fermented under anaerobic conditions in 20 L culture vessels, along with a media control containing no bacteria (FIG. 1). After 10 days, the extracellular metabolites were extracted and the crude mixture was partitioned into metabolite-rich fractions using reversed phased flash chromatography. The pre-fractionation process simplifies each fraction, thereby improving the signal in the primary screen and facilitating the downstream isolation of bioactive compounds. The fraction library was screened for agonist activity against individual GPCRs using a luminescence-based β-arrestin recruitment assay.
(§2) Compound plates were shipped on dry ice to Eurofins DiscoverX and the gperMAX and orphanMAX panels were run on all 80 samples in singleton.

[4] = tested on: histamine receptor (HRH) family; assay: β-arrestin recruitment GPCR agonist assay (PathHunter), histamine receptor family; type: cell-based, human; conditions: synthetic polyamines; result in words
[5] = target: brain angiogenesis factor 1 (BAI1) (Homo sapiens, UniProt O14514); assay: β-arrestin recruitment GPCR agonist assay (PathHunter), BAI1; type: cell-based
HRH4 = HRH4 (Homo sapiens, UniProt Q9H3N8); assay: β-arrestin recruitment GPCR agonist assay (PathHunter), HRH4; type: cell-based; conditions: result in words
GPR151 = target: T3, GPR151 (Homo sapiens, UniProt Q8TDV0); assay: β-arrestin recruitment GPCR agonist assay (PathHunter), GPR151; type: cell-based; conditions: Table 1, GPCR GPR151 (Q8TDV0)
T3 sequence (Q8TDV0 1-419): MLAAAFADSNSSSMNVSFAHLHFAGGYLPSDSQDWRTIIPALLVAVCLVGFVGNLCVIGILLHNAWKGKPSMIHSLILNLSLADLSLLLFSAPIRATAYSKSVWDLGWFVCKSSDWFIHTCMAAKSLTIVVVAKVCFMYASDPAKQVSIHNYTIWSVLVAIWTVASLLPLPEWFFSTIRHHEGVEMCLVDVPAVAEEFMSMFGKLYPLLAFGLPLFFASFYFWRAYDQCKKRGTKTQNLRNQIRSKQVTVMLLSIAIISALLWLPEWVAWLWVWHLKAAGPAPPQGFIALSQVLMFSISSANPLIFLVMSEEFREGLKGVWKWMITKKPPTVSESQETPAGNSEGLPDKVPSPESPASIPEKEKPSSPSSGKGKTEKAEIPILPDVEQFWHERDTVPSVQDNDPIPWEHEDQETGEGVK

DRD2 = assay: β-arrestin recruitment GPCR agonist assay (PathHunter), DRD2; type: cell-based, human; conditions: synthetic standard; result in words
Excerpt: as §1, §2

DRD3 = DRD3 (Homo sapiens, UniProt P35462); assay: β-arrestin recruitment GPCR agonist assay (PathHunter), DRD3; type: cell-based; conditions: synthetic standard; result in words
[6] = Table 1, GPCR UTR2 (Q9UKP6), read-out: EC50 (μM), UTR2

brain angiogenesis factor 1 (BAI1), sequence (O14514 31-1584): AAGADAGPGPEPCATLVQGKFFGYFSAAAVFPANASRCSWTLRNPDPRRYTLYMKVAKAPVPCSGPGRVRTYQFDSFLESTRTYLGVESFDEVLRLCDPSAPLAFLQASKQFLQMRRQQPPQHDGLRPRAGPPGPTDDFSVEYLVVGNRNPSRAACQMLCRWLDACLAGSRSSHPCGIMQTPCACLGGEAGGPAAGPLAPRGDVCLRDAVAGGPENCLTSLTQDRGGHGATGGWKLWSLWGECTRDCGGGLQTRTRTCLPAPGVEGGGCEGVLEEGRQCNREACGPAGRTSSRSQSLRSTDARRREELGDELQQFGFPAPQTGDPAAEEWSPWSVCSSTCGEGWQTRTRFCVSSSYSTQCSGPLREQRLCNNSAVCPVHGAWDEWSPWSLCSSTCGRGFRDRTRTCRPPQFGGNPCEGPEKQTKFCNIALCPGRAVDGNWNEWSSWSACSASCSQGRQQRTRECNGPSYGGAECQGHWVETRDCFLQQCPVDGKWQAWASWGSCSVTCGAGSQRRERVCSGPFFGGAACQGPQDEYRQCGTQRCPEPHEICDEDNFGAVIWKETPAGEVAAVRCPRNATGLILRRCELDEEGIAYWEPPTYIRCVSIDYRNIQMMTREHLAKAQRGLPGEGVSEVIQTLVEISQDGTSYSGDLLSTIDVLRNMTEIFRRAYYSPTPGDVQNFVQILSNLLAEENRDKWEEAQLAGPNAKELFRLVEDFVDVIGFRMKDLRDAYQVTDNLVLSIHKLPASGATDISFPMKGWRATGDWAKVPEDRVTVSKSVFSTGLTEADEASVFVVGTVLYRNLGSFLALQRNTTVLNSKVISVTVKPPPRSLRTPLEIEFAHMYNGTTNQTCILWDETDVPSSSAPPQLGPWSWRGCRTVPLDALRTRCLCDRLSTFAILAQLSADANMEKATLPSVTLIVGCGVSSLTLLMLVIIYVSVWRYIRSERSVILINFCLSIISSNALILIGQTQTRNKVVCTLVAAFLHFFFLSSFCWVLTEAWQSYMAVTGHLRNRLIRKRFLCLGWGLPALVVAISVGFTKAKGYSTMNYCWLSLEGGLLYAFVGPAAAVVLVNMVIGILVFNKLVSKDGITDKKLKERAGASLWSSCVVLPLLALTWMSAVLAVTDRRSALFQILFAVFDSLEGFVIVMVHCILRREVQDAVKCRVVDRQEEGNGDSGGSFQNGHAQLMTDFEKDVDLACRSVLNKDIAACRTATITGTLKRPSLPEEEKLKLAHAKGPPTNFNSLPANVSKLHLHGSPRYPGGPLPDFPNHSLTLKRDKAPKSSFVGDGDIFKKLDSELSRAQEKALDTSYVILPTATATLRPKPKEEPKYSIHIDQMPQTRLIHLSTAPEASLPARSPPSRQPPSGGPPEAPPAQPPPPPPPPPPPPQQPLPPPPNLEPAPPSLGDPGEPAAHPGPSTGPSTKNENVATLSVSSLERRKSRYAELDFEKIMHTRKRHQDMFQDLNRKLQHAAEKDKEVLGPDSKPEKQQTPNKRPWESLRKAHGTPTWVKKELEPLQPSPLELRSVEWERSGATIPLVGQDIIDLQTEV
HRH4, sequence (Q9H3N8 whole entry): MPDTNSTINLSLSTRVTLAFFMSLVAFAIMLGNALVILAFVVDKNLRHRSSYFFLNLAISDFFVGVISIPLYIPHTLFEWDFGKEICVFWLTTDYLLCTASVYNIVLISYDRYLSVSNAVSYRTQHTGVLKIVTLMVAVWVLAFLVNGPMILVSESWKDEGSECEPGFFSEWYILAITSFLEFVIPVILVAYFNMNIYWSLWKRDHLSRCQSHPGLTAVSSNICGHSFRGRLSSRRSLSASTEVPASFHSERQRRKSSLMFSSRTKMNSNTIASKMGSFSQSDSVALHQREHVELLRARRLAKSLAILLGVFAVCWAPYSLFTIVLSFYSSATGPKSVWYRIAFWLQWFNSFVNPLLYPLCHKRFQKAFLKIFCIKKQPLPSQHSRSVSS
DRD3, sequence (P35462 whole entry): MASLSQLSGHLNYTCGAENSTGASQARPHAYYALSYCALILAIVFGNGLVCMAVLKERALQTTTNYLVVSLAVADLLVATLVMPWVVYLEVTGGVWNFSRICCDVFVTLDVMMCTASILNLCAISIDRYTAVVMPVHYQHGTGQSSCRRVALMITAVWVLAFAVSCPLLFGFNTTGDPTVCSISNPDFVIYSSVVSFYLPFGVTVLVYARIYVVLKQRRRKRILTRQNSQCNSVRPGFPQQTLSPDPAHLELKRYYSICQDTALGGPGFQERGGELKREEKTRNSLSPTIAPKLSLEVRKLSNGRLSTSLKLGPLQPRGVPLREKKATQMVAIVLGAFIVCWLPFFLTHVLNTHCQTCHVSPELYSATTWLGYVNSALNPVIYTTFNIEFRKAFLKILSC
GPR109B, sequence (P49019 whole entry): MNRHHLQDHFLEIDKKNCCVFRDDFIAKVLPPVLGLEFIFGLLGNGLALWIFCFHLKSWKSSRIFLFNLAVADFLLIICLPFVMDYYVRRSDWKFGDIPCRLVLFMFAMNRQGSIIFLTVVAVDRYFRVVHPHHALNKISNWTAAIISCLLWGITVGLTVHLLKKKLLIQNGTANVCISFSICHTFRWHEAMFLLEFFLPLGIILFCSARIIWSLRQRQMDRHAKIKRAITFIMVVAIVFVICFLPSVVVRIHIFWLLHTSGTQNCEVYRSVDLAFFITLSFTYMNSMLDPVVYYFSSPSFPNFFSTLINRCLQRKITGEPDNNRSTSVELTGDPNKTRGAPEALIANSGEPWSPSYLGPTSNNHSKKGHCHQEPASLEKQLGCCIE

## CCC(C)CCCCCCCCCCCCC(=O)O (stereo not drawn) [aiC17:0, reference compound]
[1]
  agonist activity at NMU1R: minimal agonist activity
[2]
  agonist activity at UTR2: minimal agonist activity

## NCCc1c[nH]c2ccccc12 [tryptamine]
[3]
  agonism of serotonin receptors (HTRs): can modulate serotonin receptors

## O=C(O)C=Cc1ccc(O)cc1 [4-hydroxycinnamic acid]
GPR109B
  EC50: 208 µM

## NCCCCNCCCN [spermidine]
[4]
  HRH activity across the entire receptor family: no HRH activity across the entire receptor family

## CCCCCCC1CC1CCCCCCCC(=O)O (stereo not drawn) [9,10-methylenehexadecanoic acid]
[5]; Table 1, GPCR BAI1 (O14514)
  EC50: 3.2 µM
[5]; result in words
  agonism of BAI1: agonized BAIL; also recorded: BAIl-active
[2]; [6]
  EC50: 52 µM

## CC(C)CCCCCCCCCCCC(=O)O [iC15:0, reference compound]
[1]
  agonist activity at NMU1R: minimal agonist activity
[2]
  agonist activity at UTR2: minimal agonist activity

## N=C(N)NCCCCN [Agmatine, agmatine, reference compound]
HRH4
  agonism / activation of HRH4: selectively agonized HRH4 but to a lesser extent than cadaverine

## CCC(C)CCCCCCCCCCCCC(=O)O (stereo not drawn) [14-methylpalmitic acid]
GPR151
  EC50: 40 µM

## NCCCCCN [cadaverine]
HRH4
  agonism / activation of HRH4: major metabolite responsible for HRH4 activation; also recorded: HRH4 agonist
HRH4; listed as Cadaverine
  agonism / activation of HRH4: HRH4 agonist

## NCCc1ccc(O)cc1 [tyramine]
DRD2
  agonism of DRD2: agonism of DRD2 and DRD3 was validated
DRD3
  agonism of DRD3: agonism of DRD2 and DRD3 was validated

## CCC(C)CCCCCCCCCCC(=O)O (stereo not drawn) [12-methylmyristic acid, 12-methyltetradecanoic acid]
[1]; Table 1, GPCR NMU1R (Q9HB89), read-out: EC50 (μM), NMU1R
  EC50: 29 µM
[1]
  agonist activity at NMU1R: NMU1R-active
[1]; synthetic and natural compound, read-out: EC50, agonism of NMU1R (converted)
  EC50: 132 µM
GPR151
  EC50: 49 µM
[2]; [6]
  EC50: 49 µM
[2]; synthetic and natural compound, read-out: EC50, agonism of UTR2 (converted)
  EC50: 202 µM

## NCCCCN [putrescine, reference compound]
HRH4
  agonism / activation of HRH4: selectively agonized HRH4 but to a lesser extent than cadaverine

## CC(C)CCCCCCCCCCCC(=O)O [13-methylmyristic acid, 13-methyltetradecanoic acid]
GPR151
  EC50: 44 µM
